biological target: human M4 receptor (Homo sapiens (Human), UniProt P08173); assay: Radioligand (tritiated N-methylscopolamine) binding assay, M4; details: Ki against the M4 receptor; membranes from CHO cells expressing human M4; tritiated N-methylscopolamine 1.5 nM; read-out: Ki
Experimental: Binding affinity (Ki) of compounds was measured by inhibition of radioligand binding to membranes from CHO cells expressing human M1, M2, M3, M4 and M5 receptors. Membranes were prepared by nitrogen cavitation and differential centrifugation as previously described (Hoare et al., Mol. Pharmacol. 2003 March; 63(3): 751-65). The radioligand employed was tritiated N-methylscopolamine, used at a concentration of 1.5 nM. A dose-response of twelve concentrations of compound was used, ranging from 10 μM to […]. The assay buffer was 50 mM HEPES, 100 mM NaCl, 5 mM MgCl2, 1 mM ethylenediaminetetraacetic acid, pH-adjusted to pH 7.4. Membranes, radioligand and compound were incubated together for 90 minutes at 37° C., in a total volume of 150 μl in a 96-well plate. Receptor-bound radioligand was then collected by harvesting the assay over glass fiber filters pretreated with polyethylenimine to trap the cell membranes, using rapid vacuum filtration. Harvesting and radioactivity counting was conducted as previously described (see, e.g., Hoare et al., Mol. Pharmacol. 2003 63(3):751-65); Erratum at Mol. Pharmacol. 2005 July; 68(1): 260).

human M4 receptor, sequence (P08173 whole entry): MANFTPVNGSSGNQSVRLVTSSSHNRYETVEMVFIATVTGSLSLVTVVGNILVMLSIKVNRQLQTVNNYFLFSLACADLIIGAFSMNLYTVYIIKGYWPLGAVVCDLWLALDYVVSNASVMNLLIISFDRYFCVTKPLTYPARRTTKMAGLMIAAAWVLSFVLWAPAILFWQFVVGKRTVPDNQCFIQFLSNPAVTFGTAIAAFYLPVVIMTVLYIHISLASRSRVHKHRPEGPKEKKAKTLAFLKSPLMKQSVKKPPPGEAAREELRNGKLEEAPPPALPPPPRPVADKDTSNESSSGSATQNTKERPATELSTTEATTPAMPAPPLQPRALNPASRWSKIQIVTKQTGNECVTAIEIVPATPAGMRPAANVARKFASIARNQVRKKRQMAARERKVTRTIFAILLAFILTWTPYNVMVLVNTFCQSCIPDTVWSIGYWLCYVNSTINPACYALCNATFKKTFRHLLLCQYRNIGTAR

`C[C@@H]1CN(c2ccc(F)nc2)CCN1C(=O)NCCC1CCN(Cc2ccccc2)CC1` [4-35, (2R)-N-[2-(1-benzylpiperidin-4-yl)ethyl]-4-(6-fluoropyridin-3-yl)-2-methylpiperazine-1-carboxamide] and `C[C@@H]1CN(c2ccc(C#N)cn2)CCN1C(=O)NCCC1CCN(Cc2ccccc2)CC1` [4-31, (2R)-N-[2-(1-benzylpiperidin-4-yl)ethyl]-4-(5-cyanopyridin-2-yl)-2-methylpiperazine-1-carboxamide] fall in the same range of Ki: 10 to 100 nM for the first, 10 to 100 nM for the second.

`O=C(NCCC1CCN(Cc2cccc(O)c2)CC1)c1ccc(Oc2ccccc2)cc1` [11-13, N-(2-{1-[(3-hydroxyphenyl)methyl]piperidin-4-yl}ethyl)-4-phenoxybenzamide] and `O=C(NCCC1CCN(Cc2ccccc2)CC1)c1ccc(SC(F)(F)F)cc1` [9-56, N-[2-(1-benzylpiperidin-4-yl)ethyl]-4-[(trifluoromethyl)sulfanyl]benzamide] fall in the same range of Ki: 100 to 1000 nM for the first, 100 to 1000 nM for the second.

First: C[C@@H]1CN(c2ncc(C(F)(F)F)cn2)CCN1C(=O)NCCC1CCN(Cc2cncnc2)CC1 [6-39, (2R)-2-methyl-N-{2-[1-(pyrimidin-5-ylmethyl)piperidin-4-yl]ethyl}-4-[5-(trifluoromethyl)pyrimidin-2-yl]piperazine-1-carboxamide]
Second: C[C@@H]1CN(c2ncc(C(F)(F)F)cn2)CCN1C(=O)NCCC1CCN(Cc2cccnc2)CC1 [6-32, (2R)-2-methyl-N-{2-[1-(pyridin-3-ylmethyl)piperidin-4-yl]ethyl}-4-[5-(trifluoromethyl)pyrimidin-2-yl]piperazine-1-carboxamide]
The Ki of the first is higher: 100 to 1000 nM for the first, 10 to 100 nM for the second.

`Cc1c(C(=O)NCCC2CCN(Cc3ccccc3)CC2)cnc2cc(-c3cccnc3F)nn12` [18-18] and `Cc1c(C(=O)NCCC2CCN(Cc3ccccc3)CC2)cnc2cc(-c3cccs3)nn12` [17-7, N-[2-(1-benzylpiperidin-4-yl)ethyl]-7-methyl-2-(thiophen-2-yl)pyrazolo[1,5-a]pyrimidine-6-carboxamide] fall in the same range of Ki: 100 to 1000 nM for the first, 100 to 1000 nM for the second.

`O=C(NCCC1CCN(Cc2ccccc2)CC1)NC1CCN(c2ccc(F)cc2)CC1` [8-39, 1-[2-(1-benzylpiperidin-4-yl)ethyl]-3-[1-(4-fluorophenyl)piperidin-4-yl]urea] and `COc1cccc(N2CCC(C(=O)NCCC3CCN(Cc4ccccc4)CC3)CC2)c1` [10-53, N-[2-(1-benzylpiperidin-4-yl)ethyl]-1-(3-methoxyphenyl)piperidine-4-carboxamide] fall in the same range of Ki: 100 to 1000 nM for the first, 100 to 1000 nM for the second.

`C[C@@H]1CN(c2cc(F)c(F)c(F)c2)CCN1C(=O)NCCC1CCN(Cc2ccc3c(c2)OCCO3)CC1` [6-9, (2R)-N-{2-[1-(2,3-dihydro-1,4-benzodioxin-6-ylmethyl)piperidin-4-yl]ethyl}-2-methyl-4-(3,4,5-trifluorophenyl)piperazine-1-carboxamide] and `C[C@@H]1CN(c2cc(F)c(F)c(F)c2)CCN1C(=O)NCCC1CCN(Cc2cccc(C#N)c2)CC1` [6-18, (2R)-N-(2-{1-[(3-cyanophenyl)methyl]piperidin-4-yl}ethyl)-2-methyl-4-(3,4,5-trifluorophenyl)piperazine-1-carboxamide] fall in the same range of Ki: 10 to 100 nM for the first, 10 to 100 nM for the second.

Compared with `O=C(NCCC1CCN(Cc2ccccc2)CC1)C1CCN(c2ccc(OC(F)(F)F)nc2)CC1` [10-34, N-[2-(1-benzylpiperidin-4-yl)ethyl]-1-[6-(trifluoromethoxy)pyridin-3-yl]piperidine-4-carboxamide], `CN(CCC1CCN(Cc2ccccc2)CC1)C(=O)C1CCN(c2ccc(OC(F)(F)F)cc2)CC1` [9-34, N-[2-(1-benzylpiperidin-4-yl)ethyl]-N-methyl-1-[4-(trifluoromethoxy)phenyl]piperidine-4-carboxamide] is higher in Ki: 10 to 100 nM for the first, 100 to 1000 nM for the second. The first binds more tightly here.

First: O=C(c1ccn2cc(-c3ccc(OC(F)(F)F)cc3)nc2c1)N(C1CC1)C1CCN(Cc2ccccc2)CC1 [9-48, N-(1-benzylpiperidin-4-yl)-N-cyclopropyl-2-[4-(trifluoromethoxy)phenyl]imidazo[1,2-a]pyridine-7-carboxamide]
Second: CN(C1CCN(C(=O)C2CCN(c3ccc(OC(F)(F)F)cc3)CC2)CC1)[C@@H]1CCN(Cc2ccccc2)C1 [9-33, N-[(3R)-1-benzylpyrrolidin-3-yl]-N-methyl-1-{1-[4-(trifluoromethoxy)phenyl]piperidine-4-carbonyl}piperidin-4-amine]
The Ki of the first is higher: 100 to 1000 nM for the first, 10 to 100 nM for the second.

`Cc1cc(CN2CCC(CCNC(=O)N3[C@H](C)CN(c4cnc(C(F)(F)F)nc4)C[C@@H]3C)CC2)ccc1O` [6-49, (2R,6S)-N-(2-{1-[(4-hydroxy-3-methylphenyl)methyl]piperidin-4-yl}ethyl)-2,6-dimethyl-4-[2-(trifluoromethyl)pyrimidin-5-yl]piperazine-1-carboxamide] and `CC(C)CCN1CCC(CCNC(=O)N2[C@H](C)CN(c3ncc(C#N)cn3)C[C@@H]2C)CC1` [21-8] fall in the same range of Ki: 100 to 1000 nM for the first, 100 to 1000 nM for the second.

Compared with `O=C(NCCC1CCN(Cc2ccccc2)CC1)C1(O)CCN(c2ccc(OC(F)(F)F)cn2)CC1` [10-61, N-[2-(1-benzylpiperidin-4-yl)ethyl]-4-hydroxy-1-[5-(trifluoromethoxy)pyridin-2-yl]piperidine-4-carboxamide], `O=C(NCCC1(O)CCN(Cc2ccccc2)CC1)C1CCN(c2cccc(OC(F)(F)F)c2)CC1` [9-46, N-[2-(1-benzyl-4-hydroxypiperidin-4-yl)ethyl]-1-[3-(trifluoromethoxy)phenyl]piperidine-4-carboxamide] is lower in Ki: 100 to 1000 nM for the first, 10 to 100 nM for the second.

Compared with `Cc1c(C(=O)NCCC2CCN(Cc3ccccc3)CC2)cnc2cc(-c3cccc(C#N)c3)nn12` [18-8], `CCNC(=O)c1cnc(N2CCN(C(=O)NCCC3CCN(Cc4ccccc4)CC3)[C@H](C)C2)nc1` [27-16] is higher in Ki: 10 to 100 nM for the first, 100 to 1000 nM for the second.

`Cc1cc(C(=O)NC2CC2)nc(N2CCN(C(=O)NCCC3CCN(Cc4ccccc4)CC3)[C@H](C)C2)n1` [27-14] and `C[C@@H]1CN(c2cc(F)c(F)c(F)c2)CCN1C(=O)NCCC1CCN(Cc2cccc(OC(F)(F)F)c2)CC1` [6-20, (2R)-2-methyl-N-[2-(1-{[3-(trifluoromethoxy)phenyl]methyl}piperidin-4-yl)ethyl]-4-(3,4,5-trifluorophenyl)piperazine-1-carboxamide] fall in the same range of Ki: 100 to 1000 nM for the first, 100 to 1000 nM for the second.

`O=C(OCCC1CCN(Cc2ccccc2)CC1)N1CCN(c2cccc(OC(F)(F)F)c2)CC1` [12-4, 2-(1-benzylpiperidin-4-yl)ethyl 4-[3-(trifluoromethoxy)phenyl]piperazine-1-carboxylate] and `O=C(OCCC1CCN(Cc2ccccc2)CC1)N1CCN(c2cc(F)c(F)c(F)c2)CC1` [12-12, 2-(1-benzylpiperidin-4-yl)ethyl 4-(3,4,5-trifluorophenyl)piperazine-1-carboxylate] fall in the same range of Ki: 10 to 100 nM for the first, 10 to 100 nM for the second.

`C[C@@H]1CN(c2ncc(C#N)cn2)C[C@H](C)N1C(=O)NCCC1CCN(CC2CCCCO2)CC1` (some centres unmarked) [21-9] and `C[C@@H]1CN(c2cc(F)c(F)c(F)c2)CCN1C(=O)NCCC1CCN(Cc2ccc(F)c(F)c2F)CC1` [6-22, (2R)-2-methyl-4-(3,4,5-trifluorophenyl)-N-(2-{1-[(2,3,4-trifluorophenyl)methyl]piperidin-4-yl}ethyl)piperazine-1-carboxamide] fall in the same range of Ki: 100 to 1000 nM for the first, 100 to 1000 nM for the second.

`O=C(NCCC1CCN(Cc2csnn2)CC1)C1CCN(c2ccc(OC(F)(F)F)cc2)CC1` [11-11, N-{2-[1-(1,2,3-thiadiazol-4-ylmethyl)piperidin-4-yl]ethyl}-1-[4-(trifluoromethoxy)phenyl]piperidine-4-carboxamide] was tested, and the Ki was 100 to 1000 nM.

Reference: US11033539B2, “Compounds of formulas (VII), (VIII), (IX), (XI), (XII), (XIII), and (XIV) as muscarinic receptor 4(M4) antagonists for treating neurological diseases” (Neurocrine Biosciences, Inc., priority 2015, dated 2021)
